Earlier results in US11007171B2, “Treatment and prevention of joint disorders” (Summit Innovation Labs, LLC, priority 2017, dated 2021).

Columns and labels:
[1] = tested on: rats fed a high cholesterol diet
[2] = tested on: Porphyromonas gingivalis, Prevotella gingivalis, and Actinobacillus actinomycetemcomitans; settings: periodontopathic microorganisms
[3] = compared with vitamin E
[4] = tested on: high fat diet-induced obese mice; settings: compared with controls
[5] = tested on: Collagen induced rheumatoid arthritis; settings: quercetin supplementation
NF-κB = tested on: NF-κB; parameters: key: ↓: Downregulate Inducers of arthritis
[6] = doses of a few grams a day in either humans or animals
mice fed high fat diet = settings: oral
[7] = tested on: acute antigen-induced arthritis model
RA = settings: by suppressing IL-1β, TNF-α, NF-κB, COX2 and PGE2, MMPs, and arthritis index through induction of SIRT1
FGF = tested on: FGF; parameters: key: ↓: Downregulate Inducers of arthritis
[8] = tested on: osteoarthritis chondrocytes
HIF-2α = tested on: HIF-2α; parameters: key: ↓: Downregulate Inducers of arthritis
[9] = tested on: advanced glycation end products stimulated chondrocytes
[10] = tested on: Human Articular Cartilage and Chondrosarcoma Cells
C57BL/6 mice = settings: local intra-articular injection
mTOR = mTOR (Homo sapiens, UniProt P42345); parameters: key: ↓: Downregulate Inducers of arthritis
AP1 = tested on: AP1; parameters: key: ↓: Downregulate Inducers of arthritis
[11] = tested on: pigs with the equivalent of human metabolic syndrome
male C57BL/6J mice = settings: 0.4% (w/w), 4-8 week-old male C57BL/6J mice
[12] = tested on: rheumatoid arthritis synovial fibroblast (RASF)
[13] = tested on: OA cartilage of animal model and IL-1β treated human chondrocytes; settings: resveratrol injection
Bax = tested on: Bax; parameters: key: ↓: Downregulate Inducers of arthritis
cartilage = settings: by inhibiting iNOS expression
NMDAR = tested on: NMDAR; parameters: key: ↓: Downregulate Inducers of arthritis
[14] = tested on: experimental osteoarthritis; settings: intraarticular magnesium sulfate (MgSO4)
[15] = in vivo
[16] = tested on: 23 fungi strains including Candida species; settings: fairly low concentration
P38 MAPK = tested on: P38 MAPK; parameters: key: ↓: Downregulate Inducers of arthritis
[17] = tested on: rabbit articular chondrocytes; settings: rabbit articular chondrocytes in vitro
[18] = tested on: human bone marrow-derived mesenchymal stem cells (hBMSCs); settings: especially at a concentration of 5 μM
VEGF = tested on: VEGF; parameters: key: ↓: Downregulate Inducers of arthritis
[19] = tested on: Human Chondrocytes Treated with Hydrogen Peroxide or Growth-Related Oncogene a
Runx2 = tested on: Runx2; parameters: key: ↓: Downregulate Inducers of arthritis
[20] = after 4 weeks, 500 mg/day

COc1ccc([C@@H]2CC(=O)c3c(O)cc(O[C@@H]4O[C@H](CO[C@@H]5O[C@@H](C)[C@H](O)[C@@H](O)[C@H]5O)[C@@H](O)[C@H](O)[C@H]4O)cc3O2)cc1O [hesperidin, hesperitin-7-O-rutinoside]
inhibition of liver cholesterol biosynthesis [1]: 28.3%
inhibition of the esterification of hepatic cholesterol [1]: 23.7%

C=CCc1ccc(O)c(-c2ccc(O)c(CC=C)c2)c1 [honokiol]
cytotoxic effect on human gingival cells (human gingival cells): relatively low cytotoxic effect
antimicrobial activity [2]: significant antimicrobial activity
antioxidant activity, potency relative to vitamin E [3]: 1000 times
glucose tolerance [4]: improved
plasma total cholesterol and glucose levels [4]: significantly reduced

(−)-epicatechin-(4β→8)-(−)-epicatechin [procyanidin B2]
OA progression (OA animal model): Pcy and components of Pcy (procyanidin B2 and B3) slowed OA progression,

O=c1c(O)c(-c2ccc(O)c(O)c2)oc2cc(O)cc(O)c12 [Quercetin, 3,5,7,3′,4′-pentahydroxyflavone]
progression of RA (arthritis score and paw swelling), elastase activity, oxidative stress and NO expression [5]: Quercetin supplementation (a) reduced progression of RA as indicated by a reduction
expression of genes associated with mitochondrial biogenesis (PGC-1a and SIRT1), mitochondrial DNA content, and cytochrome-C concentration (mice; 7 days, 12.5 or 25 mg/kg b.w., muscle and brain, mice): increases
maximal endurance capacity (time to fatigue) and voluntary wheel-running activity (mice; treadmill running test, compared with placebo-treated mice): significantly increased
Downregulate NF-κB (NF-κB): ↓
side effects [6]: no side effects
NF-κB activity, IL-1β, CRP, monocyte chemotactic protein-1 (rat adjuvant arthritis): Quercetin supplementation significantly reduced NF-κB activity, IL-1β, CRP,
plasma antioxidant activity (rat adjuvant arthritis): monocyte chemotactic protein-1, and increased plasma antioxidant activity [Gardi C,

Oc1ccc(/C=C/c2cc(O)cc(O)c2)cc1 [Resveratrol, 3,5,4′-trihydroxy-trans-stilbene]
OA severity (mice fed high fat diet): Significantly reduced
chondrocyte apoptosis (mice fed high fat diet): inhibited
collagen type II expression (mice fed high fat diet): increased
type II collagen and proteoglycan degradation (mice fed high fat diet): prevented
knee swelling, histological score of synovial tissue, proliferating cell nuclear antigen (anti-PCNA), and proteins expressed by circulating microphages (CD 68, CD3) [7]: Resveratrol significantly reduced knee swelling, histological score of synovial tissue,
RA development and progression (RA): Resveratrol inhibited RA development and progression by suppressing inflammation
Downregulate FGF (FGF): ↓
chondrocyte apoptosis [8]: Reduced chondrocyte apoptosis mediated by (a) an inhibition of proapoptotic protein
Downregulate HIF-2α (HIF-2α): ↓
AGEs induced degradation of collagen type II [9]: production of NO and PGE2, prevented AGEs induced degradation of collagen type
AGEs induced expression and activity of MMP-13 [9]: II, and decreased AGEs induced expression and activity of MMP-13 by down
FGF and IL-1β induced chondrocytes apoptosis, expression of cartilage degrading proteases (MMPs and aggrecanases) and decrease in proteoglycan biosynthesis [10]: Significantly reduced fibroblast growth factor (FGF) and IL-1β induced chondrocytes
AC degradation (C57BL/6 mice): delayed
OA symptoms (C57BL/6 mice): reduced
matrix synthesis (C57BL/6 mice): increased
Downregulate mTOR (mTOR): ↓
Downregulate NF-κB (NF-κB): ↓
Downregulate AP1 (AP1): ↓
body mass indices, serum cholesterol and C-reactive protein [11]: lowered
glucose tolerance and endothelial function [11]: improved
aerobic capacity (male C57BL/6J mice): significantly increased
apoptosis of rheumatoid arthritis synovial fibroblast (RASF) [12]: Resveratrol induced apoptosis of rheumatoid arthritis synovial fibroblast (RASF)
expression of collagen type II [13]: maintained
expression of iNOS and MMP-13 [13]: reduced
Downregulate Bax (Bax): ↓

Oc1cc(O)c2c(c1)O[C@H](c1ccc(O)c(O)c1)[C@@H](O)[C@@H]2c1c(O)cc(O)c2c1O[C@H](c1ccc(O)c(O)c1)[C@@H](O)C2 [procyanidin B3]
OA progression (OA animal model): Pcy and components of Pcy (procyanidin B2 and B3) slowed OA progression,
cartilage degradation and heterotopic ossification (cartilage): Pcy B3 prevents cartilage degradation and heterotopic ossification (bone formation in

Magnesium
Downregulate NMDAR (NMDAR): ↓
Downregulate NF-κB (NF-κB): ↓
cartilage degradation and chondrocyte apoptosis [14]: Reduced cartilage degradation and chondrocyte apoptosis deposition by blocking

C=CCc1ccc(O)c(-c2cc(CC=C)ccc2O)c1 [magnolol, 4-Allyl-2-(5-allyl-2-hydroxy-phenyl)phenol]
cytotoxic effect on human gingival cells (human gingival cells): relatively low cytotoxic effect
antimicrobial activity [2]: significant antimicrobial activity
antioxidant activity, potency relative to vitamin E [3]: 1000 times
fasting blood glucose and plasma insulin levels (type 2 diabetic rats): reduced
glucose tolerance [4]: improved
plasma total cholesterol and glucose levels [4]: significantly reduced
oral bioavailability [15]: 4-5%

COc1cc(/C=C/C(=O)CC(=O)/C=C/c2ccc(O)c(OC)c2)ccc1O [Curcumin, (1E,6E)-1,7-Bis(4-hydroxy-3-methoxyphenyl)-1,6-heptadiene-3,5-dione]
IL-1β induced chondrocytes apoptosis (chondrocytes): Inhibited IL-1β induced chondrocytes apoptosis, by suppressing caspase-3
antifungal activity [16]: potent antifungal activity
adhesion of Candida species to human buccal epithelial cells (Candida species): inhibitory effect
Downregulate NF-κB (NF-κB): ↓
Downregulate P38 MAPK (P38 MAPK): ↓

epigallocatechin-3-gallate [EGCG]
IL-1β-induced IL-6 and IL-8 synthesis (RASF): Inhibited IL-1β-induced IL-6 and IL-8 synthesis in RASF via suppressing
AGEs induced expression of TNF-α and MMP-13 (OA chondrocytes): Significantly decreased AGEs induced expression of TNF-α and MMP-13 in OA
chondrocyte proliferation, production of collagen type II and aggrecan [17]: Enhanced chondrocyte proliferation, production of collagen type II and aggrecan.
osteogenic effect on hBMSCs [18]: strong stimulatory effect
Downregulate NF-κB (NF-κB): ↓
Downregulate AP1 (AP1): ↓
Downregulate P38 MAPK (P38 MAPK): ↓

OCCc1ccc(O)c(O)c1 [Hydroxytyrosol, 4-(2-Hydroxyethyl)-1,2-benzenediol]
Downregulate VEGF (VEGF): ↓
level of SIRT1 mRNA ([19]; in the presence of GROα): HT treatment significantly increased the level of SIRT1 mRNA in the presence of
chondrocytes apoptosis, DNA damage ([19]; pretreatment of chondrocytes, oxidative stress or GROα): Pretreatment of chondrocytes with HT (a) prevented chondrocytes apoptosis, DNA
Downregulate Runx2 (Runx2): ↓

glucosyl-hesperidin [G-Hesperidin]
triglyceride level [20]: marked decrease
